# Laboratory results as given in patent publication US9765087B2, “Benzimidazole derivatives” (ENANTA PHARMACEUTICALS, INC., priority 2009, dated 2017).
# Tested on: HCV 1b genotype replicon
# Experiment: HCV replicon assay (qRT-PCR or luciferase), genotype 1b
# Format: cell-based
# Settings: Hepatitis C virus, Table 11, qRT-PCR or luciferase assay, read-out: Genotype-1b replicon EC50 Range
# Text: HCV replicon cell lines (kindly provided by R. Bartenschlager) isolated from colonies as described by Lohman et. al. (Lohman et al. (1999) Science 285: 110-113, expressly incorporated by reference in its entirety) and used for all experiments. The HCV replicon has the nucleic acid sequence set forth in EMBL Accession No.: AJ242651, the coding sequence of which is from nucleotides 1801 to 8406.
# The coding sequence of the published HCV replicon was synthesized and subsequently assembled in a modified plasmid pBR322 (Promega, Madison, Wis.) using standard molecular biology techniques. One replicon cell line (“SGR 11-7”) stably expresses HCV replicon RNA which consists of (i) the HCV 5′UTR fused to the first 12 amino acids of the capsid protein, (ii) the neomycin phosphotransferase gene (neo), (iii) the IRES from encephalomyocarditis virus (EMCV), and (iv) HCV […] to NSSB genes and the HCV 3′UTR. Another replicon cell line (“Huh-luc/neo-ET”) described by Vrolijk et. al. (Vrolijk et. al. (2003) Journal of Virological Methods 110:201-209, expressly incorporated by reference in its entirety) stably expresses HCV replicon RNA which consists of (i) the HCV 5′UTR fused to the first 12 amino acids of the capsid protein, (ii) the firefly luciferase reporter gene, (iii) the ubiquitin gene, (iv) the neomycin phosphotransferase gene (neo), (v) the IRES from encephalomyocarditis virus (EMCV), and (vi) HCV NS3 to NS5B genes that harbor cell culture adaptive mutations (E1202G, T1280I, K1846T) and the HCV 3′UTR.
# These cell lines were maintained at 37° C., 5% CO2, 100% relative humidity in DMEM (Cat#11965-084, Invitrogen), with 10% fetal calf serum (“FCS”, Invitrogen), 1% non-essential amino acids (Invitrogen), 1% of Glutamax (Invitrogen), 1% of 100× penicillin/streptomycin (Cat#15140-122, Invitrogen) and Geneticin (Cat#10131-027, Invitrogen) at 0.75 mg/ml or 0.5 mg/ml for 11-7 and Huh-luc/neo-ET cells, respectively.
# EC50 values of single agent compounds and combinations were determined by HCV RNA detection using quantitative RT-PCR, according to the manufacturer's instructions, with a TAQMAN® One-Step RT-PCR Master Mix Reagents Kit (Cat#AB 4309169, Applied Biosystems) on an ABI Model 7500 thermocycler. The TaqMan primers used for detecting and quantifying HCV RNA were obtained from Integrated DNA Technologies. HCV RNA was normalized to GAPDH RNA levels in drug-treated cells, which is detected and quantified using the Human GAPDH Endogenous Control Mix (Applied Biosystems, AB 4310884E). Total cellular RNA is purified from 96-well plates using the RNAqueous 96 kit (Ambion, Cat# AM1812). Chemical agent cytotoxicity is evaluated using an MTS assay according to the manufacturer's directions (Promega).
# Since clinical drug resistance often develops in viral infections following single agent therapies, there is a need to assess the additive, antagonistic, or synergistic properties of combination therapies. We used the HCV replicon system to assess the potential use of the compound of the present invention or in combination therapies with Interferon alpha, cyclosporine analogs and inhibitors targeting other HCV proteins. The acute effects of a single or combinations of drugs are studied in the “Huh-luc/neo-ET” replicon with each chemical agent titrated in an X or Y direction in a 6 point two-fold dilution curve centered around the EC50 of each drug. Briefly, replicon cells are seeded at 7,000 cells per well in 90 ul DMEM (without phenol red, Invitrogen Cat.#31053-036) per well with 10% FCS, 1% non-essential amino acids, 1% of Glutamax and 1% of 100× penicillin/streptomycin and incubated overnight at 37° C., 5% CO2, 100% relative humidity. […]
row,SMILES,EC50
1,COC(=O)N[C@H](C(=O)N1CCC[C@H]1c1ncc(-c2ccc(C#Cc3ccc4nc([C@@H]5CCCN5C(=O)[C@@H](NC(=O)OC)[C@@H](C)O)[nH]c4c3)cc2)[nH]1)[C@@H](C)O [Example 527],< 1 nM
2,COC(=O)N[C@H](C(=O)N1CCC[C@H]1c1ncc(-c2ccc(C#Cc3ccc4nc([C@@H]5CC[C@H](C)N5C(=O)[C@@H](NC(=O)OC)C(C)C)[nH]c4c3)cc2)[nH]1)C(C)C [Example 542],< 1 nM
3,COC(=O)N[C@H](C(=O)N1CCC[C@H]1c1ncc(-c2ccc([C@@H]3C[C@H]3c3ccc4nc([C@@H]5CCCN5C(=O)[C@@H](NC(=O)OC)C(C)C)[nH]c4c3)cc2)[nH]1)C(C)C [Example 497-b],< 1 nM
4,COC(=O)N[C@H](C(=O)NCc1nc(-c2ccc(C#Cc3ccc4[nH]c([C@@H]5CCCN5C(=O)[C@@H](NC(=O)OC)C(C)C)nc4c3)cc2)c[nH]1)C(C)C [Example 479],< 1 nM
5,COC(=O)N[C@@H](C(=O)N1CCC[C@H]1c1nc(-c2ccc(CCc3ccc4[nH]c([C@@H]5CCCN5C(=O)[C@H](NC(=O)OC)c5ccccc5)nc4c3)cc2)n[nH]1)c1ccccc1 [Example 443],< 1 nM
6,COC(=O)N[C@H](C(=O)N1CCC[C@H]1c1nc(C#Cc2ccc3cc(-c4ccc5[nH]c([C@@H]6CCCN6C(=O)[C@@H](NC(=O)OC)C(C)C)nc5c4)ccc3c2)c[nH]1)C(C)C [Example 471],< 1 nM
7,COC(=O)N[C@H](C(=O)N1CCC[C@H]1c1ncc(-c2ccc(C#Cc3ccc4nc([C@@H]5CCCN5C(=O)[C@@H](NC(=O)OC)C5CC5)[nH]c4c3)cc2)[nH]1)C(C)C [Example 528],< 1 nM
8,COC(=O)N[C@H](C(=O)N1CCC[C@H]1c1ncc(-c2ccc(CCCc3ccc4[nH]c([C@@H]5CCCN5C(=O)[C@@H](NC(=O)OC)C(C)C)nc4c3)cc2)[nH]1)C(C)C [Example 449],< 1 nM
9,COC(=O)N[C@@H](C(=O)N1CCC[C@H]1c1cc(-c2ccc(C#Cc3ccc4[nH]c([C@@H]5CCCN5C(=O)[C@H](NC(=O)OC)c5ccccc5)nc4c3)cc2)n[nH]1)c1ccccc1 [Example 445],< 1 nM
10,COC(=O)N[C@H](C(=O)N1CCC[C@H]1c1ncc(-c2ccc(C#Cc3ccc4nc([C@@H]5CCCN5C(=O)[C@@H](NC(=O)OC)C(C)(C)O)[nH]c4c3)cc2)[nH]1)C(C)C [Example 530],< 1 nM
11,COC(=O)N[C@@H](C(=O)N1CCC[C@H]1c1ncc(-c2ccc(-c3ccc4[nH]c([C@@H]5CCCN5C(=O)[C@H](NC(=O)OC)c5ccccc5)nc4c3)cc2)[nH]1)c1ccccc1 [Example 2],< 1 nM
12,COC(=O)N[C@@H](C(=O)N1CCC[C@H]1c1nc(-c2ccc(C#Cc3ccc4[nH]c([C@@H]5CCCN5C(=O)[C@H](NC(=O)OC)c5ccccc5)nc4c3)cc2)c[nH]1)c1ccccc1 [Example 2-1],< 1 nM
13,COC(=O)N[C@H](C(=O)N1CCC[C@H]1c1nc(-c2ccc(C#Cc3ccc4[nH]c([C@@H]5CC(F)(F)CN5C(=O)[C@@H](NC(=O)OC)C(C)C)nc4c3)cc2)c[nH]1)C(C)C [Example 519],< 1 nM
14,COC(=O)N[C@H](C(=O)N1CCC[C@H]1c1nc(-c2ccc(CCc3ccc4nc([C@@H]5CCCN5C(=O)[C@@H](NC(=O)OC)C(C)C)[nH]c4c3)s2)c[nH]1)C(C)C [Example 454],< 1 nM
15,COC(=O)N[C@H](C(=O)N1CCC[C@H]1c1nc(-c2ccc(C#Cc3ccc4[nH]c([C@@H]5CC6(CC6)CN5C(=O)[C@@H](NC(=O)OC)C(C)C)nc4c3)cc2)c[nH]1)C(C)C [Example 521],< 1 nM
16,COC(=O)N[C@H](C(=O)N1CCC[C@H]1c1nc2cc(-c3ccc4cc(-c5c[nH]c([C@@H]6CCCN6C(=O)[C@@H](NC(=O)OC)[C@@H](C)OC)n5)ccc4c3)ccc2[nH]1)C(C)C [Example 464],< 1 nM
17,CC[C@H](C)[C@H](NC(=O)OC)C(=O)N1CCC[C@H]1c1nc2cc(-c3ccc4cc(-c5c[nH]c([C@@H]6CCCN6C(=O)[C@@H](NC(=O)OC)[C@@H](C)OC)n5)ccc4c3)ccc2[nH]1 [Example 466],< 1 nM
18,[2H]c1c([2H])c(-c2c[nH]c([C@@H]3CCCN3C(=O)[C@@H](NC(=O)OC)C(C)C)n2)c([2H])c([2H])c1C#Cc1ccc2[nH]c([C@@H]3CCCN3C(=O)[C@@H](NC(=O)OC)C(C)C)nc2c1 [Example 488],< 1 nM
19,COC(=O)N[C@H](C(=O)N1CCC[C@H]1c1nc(-c2ccc(C#Cc3cc(F)c4[nH]c([C@@H]5CCCN5C(=O)[C@@H](NC(=O)OC)C(C)C)nc4c3)cc2)c[nH]1)C(C)C [Example 483],< 1 nM
20,COC(=O)N[C@H](C(=O)N1CCC[C@H]1c1nc(-c2ccc(C#Cc3ccc4[nH]c([C@@H]5CCCN5C(=O)[C@@H](OC(=O)OC)C(C)C)nc4c3)cc2)c[nH]1)C(C)C [Example 480],< 1 nM
21,COC(=O)N[C@H](C(=O)N1CCC[C@H]1c1nc(-c2ccc(C#Cc3ccc4[nH]c([C@@H]5CC(=O)CN5C(=O)[C@@H](NC(=O)OC)C(C)C)nc4c3)cc2)c[nH]1)C(C)C [Example 486],< 1 nM
22,COC(=O)N[C@H](C(=O)N1C[C@H](O)C[C@H]1c1ncc(-c2ccc(C#Cc3ccc4nc([C@@H]5CCCN5C(=O)[C@@H](NC(=O)OC)C(C)C)[nH]c4c3)cc2)[nH]1)C(C)C [Example 535],< 1 nM
23,CC[C@H](C)[C@H](NC(=O)OC)C(=O)N1CCC[C@H]1c1ncc(-c2ccc(C#Cc3ccc4nc([C@@H]5CCCN5C(=O)[C@@H](NC(=O)OC)[C@@H](C)CC)[nH]c4c3)cc2)[nH]1 [Example 526],< 1 nM
24,COC(=O)N[C@H](C(=O)N1CCC[C@H]1c1nc(-c2ccc(/C=C/c3ccc4[nH]c([C@@H]5CCCN5C(=O)[C@@H](NC(=O)OC)C(C)C)nc4c3)s2)c[nH]1)C(C)C [Example 453],< 1 nM
25,COC(=O)N[C@H](C(=O)N1CCC[C@H]1c1nc(C#Cc2ccc(-c3ccc4[nH]c([C@@H]5CCCN5C(=O)[C@@H](NC(=O)OC)C(C)C)nc4c3)cc2)c[nH]1)C(C)C [Example 468],< 1 nM

# Same assay, conditions: Hepatitis C virus, Table 12, numeric values, read-out: 1b EC50
row,SMILES,EC50
1,COC(=O)N[C@H](C(=O)N1C[C@H](C)C[C@H]1c1ncc(-c2ccc(C#Cc3ccc4nc([C@@H]5C[C@@]6(CCCO6)CN5C(=O)[C@@H](NC(=O)OC)C(C)C)[nH]c4c3)cc2)[nH]1)C(C)C [Example 628],0.009 nM
2,COC(=O)N[C@H](C(=O)N1CCC[C@H]1c1ncc(-c2ccc(C#Cc3ccc4nc([C@@H]5C[C@@]6(CCCCO6)CN5C(=O)[C@@H](NC(=O)OC)C(C)C)[nH]c4c3)cc2)[nH]1)C(C)C [Example 632],0.013 nM
3,COC(=O)N[C@H](C(=O)N1CC2(CC2)C[C@H]1c1ncc(-c2ccc(C#Cc3ccc4nc([C@@H]5CC6(CC6)CN5C(=O)OC(C)(C)C)[nH]c4c3)cc2)[nH]1)C(C)C [Example 649],0.304 nM
4,COC(=O)N[C@H](C(=O)N1C[C@@](C)(F)C[C@H]1c1ncc(-c2ccc(C#Cc3ccc4nc([C@@H]5C[C@@]6(CCCO6)CN5C(=O)[C@@H](NC(=O)OC)C(C)C)[nH]c4c3)cc2)[nH]1)C(C)C [Example 636],0.02 nM

# Same assay, conditions: Hepatitis C virus, Table 12, range class, read-out: 1b EC50 Range
row,SMILES,EC50
1,COC(=O)N[C@H](C(=O)N1CCC[C@H]1c1ncc(-c2ccc(C#Cc3ccc4nc([C@@H]5C[C@@]6(CC(C)=NO6)CN5C(=O)[C@@H](NC(=O)OC)C(C)C)[nH]c4c3)cc2)[nH]1)C(C)C [Example 623],< 1 nM
